For one data set, the system named is SW620 colon cancer cells. In words: Apoptosis detection, DAPI/TUNEL staining, SW620. Format: cell-based, human. The conditions noted are these: 24 h. The procedure: FIG. 3B: The apoptotic index was determined as the DAPI-stained TUNEL-positive cell number counted. Values are mean±S.E.M. of three experiments, each performed in triplicate. *P<0.05 indicates statistically significant differences from the untreated group.
Apoptosis assay was first performed by using 4,6-diamino-2-phenylindole (DAPI) staining. SW620 and HCT116 human colon cancer cells were cultured in the absence or presence of increasing concentrations of thiacremonone, and induction of apoptotic cell death was evaluated after 24 h. Apoptotic cells were determined by the morphological changes after DAPI staining under fluorescence microscopic observation (DAS microscope, 100× or 200×: Leica Microsystems, Inc., Deefield, Ill., USA). Apoptosis was also evaluated by TUNEL staining assay. In short, cells were cultured on 8-chamber slides. After treatment with thiacremonone (30-150 μg/ml) for 24 h, the cells were washed twice with PBS and fixed by incubation in 4% paraformaldehyde in PBS for 1 h at room temperature. TUNEL assays were performed by using the in situ Cell Death Detection Kit (Roche Diagonostics GmbH, Mannheim, Germany) according to manufacturer's instructions. Total number of cells in a given area was determined by using DAPI and TUNEL staining. The apoptotic index was determined as the number of DAPIstained TUNEL-positive cells divided by the total cell number counted ×100.

The subject of the next data set is NF-κB. In words: NF-κB luciferase reporter assay (pNF-κB-Luc), HCT116. It counts as cell-based, human. The conditions noted are these: HCT116, 30-150 μg/ml, 8 h. As for the experimental part:
FIG. 1B: Colon cancer cells were transfected with pNF-κB-Luc plasmid (5×NF-κB) and then activated with TNF-α (150 U/ml) alone or TNF-α plus different concentrations (30-150 μg/ml) of thiacremonone at 37° C. in both SW620 (panel a and b) and HCT116 (panel c and d) colon cancer cells, and then the luciferase activity was determined. All values represent mean±S.D. of three independent experiments performed in triplicate. RLU is relative to luciferase activity in transfected unstimulated cells. *P<0.05 indicates statistically significant differences from the TNF-α-treated group.
SW620 and HCT116 human colon cells (2.5×10^5 cells/cm^2) were plated in 24-well plates and transiently transfected with pNF-κB-Luc plasmid (5×NF-κB; Stratagene, La Jolla, Calif., USA) using a mixture of plasmid and lipofectAMINE PLUS in OPTI-MEN according to manufacturer's specifications (Invitrogen, Carlsbad, Calif., USA). The transfected cells were treated with tumor necrosis factor-α (TNF-α) (10 ng/ml) or TPA (50 nM) and different concentrations (30-150 μg/ml) of thiacremonone for 8 h. Luciferase activity was measured by using the luciferase assay kit (Promega, Madison, Wis., USA) according to the manufacturer's instructions (WinGlow, Bad Wildbad, Germany).
Background: Reporter assays use an easily measured gene product as a stand-in for the process of interest.

The subject of another data set is SW620 xenograft. In words: SW620 colon xenograft in nude mice. It counts as in vivo. Particulars: for tumor volume, % of sham control group: day 31. The source says: To elucidate the anticancer effect of thiacremonone in vivo, the tumor growth on colon xenograft bearing nude mice following thiacremonone treatments were investigated. In SW620 xenograft studies, thiacremonone was administrated intraperitoneally twice per week for 4 weeks to mice with tumors ranging from 100 to 300 mm3 of tumor volume. The mice were weighted twice per week. The change of body weights between saline and thiacremonone-administrated mice (n=10) was not different during the experiment.
FIG. 5 represents the relative tumor growth delay measured after treatment of thiacremonone (240 and 360 mg/kg for four weeks, n=10) in comparison with the sham control group (saline).

For the molecule `CC1=C(O)C(=O)C(C)(O)S1` (stereo not drawn) [thiacremonone, 2,4-dihydroxy-2,5-dimethyl-thiophene-3-one], the “apoptotic cell number (DAPI-positive TUNEL-stained cells)” value in the data set on SW620 colon cancer cells (SW620, 30 μg/ml) is 0%; in the data set on SW620 colon cancer cells (SW620, 60 μg/ml), 0%; in the data set with SW620 colon cancer cells (SW620, 90 μg/ml) it was 11%; in the data set with SW620 colon cancer cells (SW620, 120 μg/ml) it was 25%; in the data set with SW620 colon cancer cells (SW620, 150 μg/ml), 97%. In addition, the “TNF-α and TPA induced NF-κB luciferase activity” value with NF-κB was “inhibited TNF-α and TPA induced NF-κB luciferase activity dose-dependently”. In addition, the “tumor volume, % of sham control group” value is reported as 92.5% in the data set with SW620 xenograft (240 mg/kg intraperitoneally twice per week for 4 weeks) and 59.1% in the data set with SW620 xenograft (360 mg/kg intraperitoneally twice per week for 4 weeks). Further, the “change of body weights versus saline” value with SW620 xenograft (intraperitoneally twice per week for 4 weeks, nude mice) is given as “not different”.

For the origin of these results see patent US7759391B2, “Pharmaceutical composition comprising thiacremonone for treating colon cancer” (Chungbuk National University Industry Academic Cooperation …, priority 2007, dated 2010).
